We go through 12 compounds from PubChem BioAssay (NCI).

Among the test systems are COLO 205 colon; HS 578T breast; MOLT-4 leukemia; NCI-H522 lung; OVCAR-4 ovarian; SF-295 CNS; SF-539 CNS; SK-MEL-28 melanoma; SNB-75 CNS; UO-31 renal.
Common to all, as to assay: growth of human tumour cells (NCI), 48 h

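48-hour exposure; five concentrations; linearly interpolated endpoints. GI50: concentration for 50% inhibition of growth. Definition used: TGI = concentration required for complete inhibition of growth.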 Where only a bound is given, the exact number is not on record here.

Turning to `Nc1c(C(=O)c2cccc(CCCN3CCOCC3)c2)cnn1-c1ccc(F)cc1`, the GI50 with COLO 205 colon, in the assay with HS 578T breast, with MOLT-4 leukemia, in the assay with NCI-H522 lung, with OVCAR-4 ovarian and in the assay with SF-295 CNS was over 25 µM each time. In addition, the GI50 in the assay on SF-539 CNS, in the assay with SK-MEL-28 melanoma, in the assay on SNB-75 CNS and in the assay on UO-31 renal was over 25 µM throughout. Moreover, the TGI with COLO 205 colon, with HS 578T breast, in the assay with MOLT-4 leukemia, in the assay with NCI-H522 lung, with OVCAR-4 ovarian and with SF-295 CNS was over 25 µM throughout. The TGI in the assay on SF-539 CNS, in the assay on SK-MEL-28 melanoma, in the assay on SNB-75 CNS and with UO-31 renal was over 25 µM in each case.
As to `CCOC(=O)c1ccc2[nH]c(-c3ccc(S(=O)(=O)F)cc3)cc(=O)c2c1`, the TGI was over 100 µM with COLO 205 colon; over 100 µM in the assay with HS 578T breast; over 100 µM in the assay on MOLT-4 leukemia; 39.4 µM in the assay on NCI-H522 lung; over 100 µM with OVCAR-4 ovarian; over 100 µM with SF-295 CNS. The TGI in the assay with SF-539 CNS, in the assay on SK-MEL-28 melanoma, in the assay with SNB-75 CNS and in the assay with UO-31 renal was over 100 µM each time.
For `CCCCON(OC(=O)c1ccccc1)C(=O)c1ccccc1`, the GI50 was over 100 µM in the assay with COLO 205 colon; over 100 µM with HS 578T breast; 53.1 µM in the assay with MOLT-4 leukemia; over 100 µM in the assay on NCI-H522 lung; over 100 µM with OVCAR-4 ovarian; over 100 µM with SF-295 CNS. For the same compound, the GI50 in the assay with SF-539 CNS, with SK-MEL-28 melanoma, in the assay with SNB-75 CNS and in the assay on UO-31 renal was over 100 µM throughout. Besides, the TGI with COLO 205 colon, in the assay on HS 578T breast, in the assay with MOLT-4 leukemia, with NCI-H522 lung, in the assay with OVCAR-4 ovarian and in the assay on SF-295 CNS was over 100 µM throughout. Besides, the TGI in the assay with SF-539 CNS, in the assay on SK-MEL-28 melanoma, in the assay on SNB-75 CNS and in the assay with UO-31 renal was over 100 µM in each case.
As to `COc1cc2c3c(n(CCCN)c(=O)c2cc1OC)-c1ccccc1C3=O`, the GI50 is 0.472 µM in the assay with COLO 205 colon; 11.1 µM in the assay with HS 578T breast; 0.339 µM in the assay on NCI-H522 lung; 2.29 µM in the assay with OVCAR-4 ovarian; 0.0709 µM with SF-295 CNS; 1.25 µM with SF-539 CNS. Besides, the GI50 is 9.99 µM in the assay with SK-MEL-28 melanoma, 4.6 µM with SNB-75 CNS and 1.8 µM in the assay with UO-31 renal. For the same compound, the TGI in the assay with COLO 205 colon was determined as 5.72 µM; in the assay on HS 578T breast it was 46.9 µM; in the assay on MOLT-4 leukemia, 7.12 µM; in the assay with NCI-H522 lung it was 22.7 µM; in the assay on OVCAR-4 ovarian, 12.7 µM; in the assay with SF-295 CNS it was 5.24 µM. Besides, the TGI was 5.23 µM in the assay on SF-539 CNS, over 46.8 µM in the assay on SK-MEL-28 melanoma, 11.6 µM with SNB-75 CNS and 13.1 µM in the assay on UO-31 renal.
Regarding `CC12CCC3C(CCC4Cc5[nH]c6ccccc6c5CC43C)C1CCC2O` (centres undefined), the GI50 was 2.76 µM with COLO 205 colon; 0.362 µM in the assay on HS 578T breast; 2.55 µM with MOLT-4 leukemia; 0.295 µM with NCI-H522 lung; 1.35 µM with OVCAR-4 ovarian; 0.3 µM with SF-295 CNS. For the same compound, the GI50 in the assay with SF-539 CNS was 1.2 µM; in the assay on SK-MEL-28 melanoma, 0.813 µM; in the assay with SNB-75 CNS it was 0.574 µM; in the assay with UO-31 renal, 4.37 µM. Further, the TGI in the assay on COLO 205 colon was 6.78 µM; with HS 578T breast, 1.88 µM; in the assay on MOLT-4 leukemia it was over 100 µM; with NCI-H522 lung, 5.73 µM; in the assay on OVCAR-4 ovarian, over 100 µM; with SF-295 CNS, 3.26 µM. Further, the TGI in the assay on SF-539 CNS is 3.77 µM; in the assay with SK-MEL-28 melanoma it was over 100 µM; in the assay with SNB-75 CNS, over 100 µM; in the assay with UO-31 renal, over 100 µM.
With `Clc1ccc(CSC(Cn2ccnc2)c2ccc(Cl)cc2Cl)cc1` (centres undefined), the GI50 was 1.5 µM in the assay on COLO 205 colon; 1.97 µM with HS 578T breast; 1.72 µM with MOLT-4 leukemia; 1.13 µM in the assay on NCI-H522 lung; 1.37 µM in the assay on OVCAR-4 ovarian; 1.37 µM in the assay with SF-295 CNS. Moreover, the GI50 in the assay with SF-539 CNS was 1.73 µM; with SK-MEL-28 melanoma it was 1.69 µM; in the assay with SNB-75 CNS, 2.13 µM; in the assay on UO-31 renal it was 1.38 µM. The TGI with COLO 205 colon amounted to 2.83 µM; with HS 578T breast, 5.02 µM; with MOLT-4 leukemia, 4.87 µM; in the assay with NCI-H522 lung, 2.48 µM; with OVCAR-4 ovarian, 3.16 µM; with SF-295 CNS, 2.89 µM. The TGI in the assay with SF-539 CNS was 3.36 µM; in the assay on SK-MEL-28 melanoma, 3.06 µM; in the assay with SNB-75 CNS, 8.04 µM; in the assay on UO-31 renal it was 4.48 µM.
Turning to `CC1(C)N=C(N)N=C(N)N1c1cccc(CCCCc2cccc(S(=O)(=O)F)c2)c1`, the GI50 is 1.53 µM with COLO 205 colon; 51.1 µM in the assay with HS 578T breast; 3.22 µM in the assay with MOLT-4 leukemia; 2.55 µM in the assay with NCI-H522 lung; 8.06 µM with OVCAR-4 ovarian; 2.45 µM in the assay on SF-295 CNS. The GI50 was 0.773 µM with SF-539 CNS, 4.1 µM in the assay on SK-MEL-28 melanoma, 0.98 µM in the assay with SNB-75 CNS and over 100 µM in the assay on UO-31 renal. Besides, the TGI in the assay on COLO 205 colon is over 100 µM; with HS 578T breast, over 100 µM; with MOLT-4 leukemia it was 80.7 µM; in the assay on NCI-H522 lung it was 43.9 µM; in the assay on OVCAR-4 ovarian it was over 100 µM; in the assay on SF-295 CNS, over 100 µM. The TGI was 18.8 µM in the assay on SF-539 CNS, 21.7 µM in the assay on SK-MEL-28 melanoma, 23.7 µM in the assay with SNB-75 CNS and over 100 µM in the assay on UO-31 renal.
On to `Cn1cc(-c2ccc3c(Nc4cccc(NC(=O)Nc5cccc(F)c5)c4)ncnc3c2)cn1`, for which the GI50 with COLO 205 colon was 0.0503 µM; in the assay with HS 578T breast it was 1.5 µM; with MOLT-4 leukemia, 1.95 µM; with NCI-H522 lung, 1.22 µM; in the assay on OVCAR-4 ovarian it was 1.85 µM; with SF-295 CNS, 1.81 µM. The GI50 with SF-539 CNS is 0.0554 µM; in the assay with SK-MEL-28 melanoma, 1.55 µM; in the assay with SNB-75 CNS, 0.0391 µM; in the assay on UO-31 renal, 2.09 µM. For the same compound, the TGI was 13.4 µM in the assay with COLO 205 colon; 9.79 µM in the assay on HS 578T breast; 14.6 µM in the assay with MOLT-4 leukemia; 15.9 µM in the assay on NCI-H522 lung; 4.41 µM in the assay on OVCAR-4 ovarian; 8.42 µM in the assay with SF-295 CNS. In addition, the TGI with SF-539 CNS worked out at 2.21 µM; in the assay with SK-MEL-28 melanoma, 3.08 µM; in the assay with SNB-75 CNS, 9.57 µM; in the assay with UO-31 renal it was 13.7 µM.
`FC(F)(F)Oc1cccc(-c2cnc3ccc(-c4ccncc4)nn23)c1`: the GI50 in the assay with COLO 205 colon was 1.5 µM; in the assay on HS 578T breast, 1.21 µM; in the assay with MOLT-4 leukemia, 2.17 µM; with NCI-H522 lung, 0.771 µM; in the assay on OVCAR-4 ovarian, 1.4 µM; in the assay on SF-295 CNS, 1.54 µM. Also, the GI50 with SF-539 CNS is 1.13 µM; in the assay with SK-MEL-28 melanoma, 2.53 µM; in the assay on SNB-75 CNS it was 1.73 µM; in the assay with UO-31 renal it was 0.708 µM. Moreover, the TGI in the assay on COLO 205 colon was 16.7 µM; in the assay on HS 578T breast, 4.24 µM; in the assay with MOLT-4 leukemia, 7.73 µM; in the assay with NCI-H522 lung, 2.82 µM; in the assay with OVCAR-4 ovarian it was 11.3 µM; with SF-295 CNS, over 100 µM. Also, the TGI in the assay with SF-539 CNS is 7.4 µM; with SK-MEL-28 melanoma, over 100 µM; in the assay with SNB-75 CNS, 5.14 µM; in the assay on UO-31 renal, 4.77 µM.
On to `COC(=O)[C@@]12C(=O)C=CC(=O)[C@@H]1C1C(=CC2COC(C)=O)O[C@@H]2OC3(CCCCC3)O[C@H]12` (some centres undefined), for which the TGI amounted to 18.4 µM in the assay with COLO 205 colon; 31.6 µM in the assay on HS 578T breast; 21 µM with MOLT-4 leukemia; 6.29 µM in the assay with NCI-H522 lung; 19.7 µM in the assay with OVCAR-4 ovarian; 29.7 µM in the assay on SF-295 CNS. Further, the TGI with SF-539 CNS was 24.7 µM; in the assay with SK-MEL-28 melanoma, 32.7 µM; with SNB-75 CNS, 26.4 µM; in the assay with UO-31 renal, 28.3 µM.
In the case of `N=C(N)c1ccc(OCc2cccc(COc3ccc(C(=N)N)cc3)c2)cc1`, the GI50 in the assay with COLO 205 colon was 15.1 µM; in the assay with HS 578T breast, 4 µM; with MOLT-4 leukemia it was 16.3 µM; with NCI-H522 lung it was 16 µM; in the assay on OVCAR-4 ovarian, 14.1 µM; in the assay with SF-295 CNS, 2.82 µM. The GI50 with SF-539 CNS is 1.92 µM; in the assay with SK-MEL-28 melanoma it was 5.15 µM; in the assay on SNB-75 CNS, 11.3 µM; with UO-31 renal, 42.1 µM. Besides, the TGI in the assay on COLO 205 colon was 40.3 µM; in the assay with HS 578T breast, 12.5 µM; in the assay with MOLT-4 leukemia it was 45.4 µM; with NCI-H522 lung, over 100 µM; in the assay with OVCAR-4 ovarian, 99.6 µM; in the assay on SF-295 CNS it was 9.35 µM. For the same compound, the TGI was 5.1 µM with SF-539 CNS, 29.1 µM in the assay on SK-MEL-28 melanoma, 31.2 µM in the assay with SNB-75 CNS and over 100 µM in the assay with UO-31 renal.
As for `CCNC(=O)[C@@H]1CCCN2C(=O)CC[C@H](NC(=O)[C@H](Cc3ccc(OP(=O)(O)O)cc3)NC(C)=O)C(=O)N12`, the GI50 in the assay on COLO 205 colon, with HS 578T breast, in the assay with MOLT-4 leukemia, in the assay with NCI-H522 lung, in the assay with OVCAR-4 ovarian and in the assay with SF-295 CNS was over 25 µM each time. The GI50 in the assay on SF-539 CNS, in the assay with SK-MEL-28 melanoma, in the assay with SNB-75 CNS and with UO-31 renal was over 25 µM in each case. For the same compound, the TGI in the assay with COLO 205 colon, in the assay on HS 578T breast, in the assay on MOLT-4 leukemia, in the assay on NCI-H522 lung, in the assay on OVCAR-4 ovarian and with SF-295 CNS was over 25 µM in each case. Also, the TGI with SF-539 CNS, in the assay on SK-MEL-28 melanoma, with SNB-75 CNS and in the assay with UO-31 renal was over 25 µM each time.
